Results from the supplement of paper PMC10307832.

Key:
Assay in all cases: relative viability (nuclei count vs DMSO), 5 days (fraction); higher = more cells survive
Erlotinib + Luminespib = compound: C#Cc1cccc(Nc2ncnc3cc(OCCOC)c(OCCOC)cc23)c1 [Erlotinib] + CCNC(=O)c1noc(-c2cc(C(C)C)c(O)cc2O)c1-c1ccc(CN2CCOCC2)cc1 [Luminespib] (partner 0.01 µM)
Summary of the method: (§1)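 Dosing by pin tool came one day after lung cancer cell lines were seeded in 1536-well plates, using either one drug or a fixed anchor-drug dose plus five library-drug doses (not always all listed) in √10 steps. After 5 days, nuclei were counted on 4× images. Relative viability is treated-well nuclei count divided by vehicle-well nuclei count, and values are medians of duplicate plates.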

AT9283 + Pemetrexed = compound: O=C(Nc1c[nH]nc1-c1nc2ccc(CN3CCOCC3)cc2[nH]1)NC1CC1 [AT9283] + Nc1nc2[nH]cc(CCc3ccc(C(=O)N[C@@H](CCC(=O)O)C(=O)O)cc3)c2c(=O)[nH]1 [Pemetrexed] (partner 0.2 µM)
Summary of the method: as §1

Erlotinib + Phenformin = compound: C#Cc1cccc(Nc2ncnc3cc(OCCOC)c(OCCOC)cc23)c1 [Erlotinib] + N=C(N)NC(=N)NCCc1ccccc1 [Phenformin] (partner 250 µM)
Summary of the method: as §1

AT9283 + Phenformin = compound: O=C(Nc1c[nH]nc1-c1nc2ccc(CN3CCOCC3)cc2[nH]1)NC1CC1 [AT9283] + N=C(N)NC(=N)NCCc1ccccc1 [Phenformin] (partner 250 µM)
Summary of the method: as §1

AT9283 + OSI-027 = compound: O=C(Nc1c[nH]nc1-c1nc2ccc(CN3CCOCC3)cc2[nH]1)NC1CC1 [AT9283] + COc1cccc2cc(-c3nc([C@H]4CC[C@H](C(=O)O)CC4)n4ncnc(N)c34)[nH]c12 [OSI-027] (partner 0.5 µM)
Summary of the method: as §1

| Cell Line | relative viability (Erlotinib + Luminespib; first compound 0.02 µM) | relative viability (Erlotinib + Luminespib; first compound 0.2 µM) | relative viability (Erlotinib + Luminespib; first compound 0.6325 µM) | relative viability (Erlotinib + Luminespib; first compound 2 µM) | relative viability (AT9283 + Pemetrexed; first compound 0.003 µM) | relative viability (AT9283 + Pemetrexed; first compound 0.03 µM) | relative viability (AT9283 + Pemetrexed; first compound 0.09487 µM) | relative viability (AT9283 + Pemetrexed; first compound 0.3 µM) | relative viability (Erlotinib + Phenformin; first compound 0.02 µM) | relative viability (Erlotinib + Phenformin; first compound 0.6325 µM) | relative viability (Erlotinib + Phenformin; first compound 2 µM) | relative viability (AT9283 + Phenformin; first compound 0.003 µM) | relative viability (AT9283 + Phenformin; first compound 0.03 µM) | relative viability (AT9283 + Phenformin; first compound 0.09487 µM) | relative viability (AT9283 + Phenformin; first compound 0.3 µM) | relative viability (AT9283 + OSI-027; first compound 0.003 µM) | relative viability (AT9283 + OSI-027; first compound 0.03 µM) | relative viability (AT9283 + OSI-027; first compound 0.09487 µM) | relative viability (AT9283 + OSI-027; first compound 0.3 µM) | relative viability (Erlotinib + Phenformin; first compound 0.2 µM) |
| --- | --- | --- | --- | --- | --- | --- | --- | --- | --- | --- | --- | --- | --- | --- | --- | --- | --- | --- | --- | --- |
| HOP-62 | 0.988 | 0.949 | 0.855 | 0.881 | 0.439 | 0.192 | 0.144 | 0.153 | 0.726 | 0.711 | 0.689 | 0.694 | 0.572 | 0.418 | 0.25 | 0.868 | 0.792 | 0.53 | 0.253 |  |
| NCI-H2228 | 0.151 | 0.131 | 0.149 | 0.121 | 0.337 | 0.244 | 0.181 | 0.16 | 0.414 | 0.357 | 0.257 | 0.363 | 0.256 | 0.129 | 0.107 | 0.585 | 0.648 | 0.355 | 0.126 | 0.338 |
| NCI-H358 | 0.262 | 0.225 | 0.31 | 0.12 | 0.164 | 0.124 | 0.111 | 0.112 | 0.349 | 0.234 | 0.178 | 0.309 | 0.1 | 0.0619 | 0.0785 | 0.899 | 0.186 | 0.0868 | 0.0708 | 0.277 |
| NCI-H1755 | 0.412 | 0.432 | 0.536 | 0.413 | 0.438 | 0.415 | 0.361 | 0.301 | 0.614 | 0.642 | 0.582 | 0.579 | 0.626 | 0.394 | 0.422 | 0.697 | 0.72 | 0.396 | 0.537 |  |
| NCI-H2126 | 0.882 | 0.648 | 0.589 | 0.635 | 0.684 | 0.693 | 0.559 | 0.358 | 0.534 | 0.489 | 0.41 | 0.511 | 0.575 | 0.365 | 0.264 | 0.635 | 0.808 | 0.75 | 0.389 | 0.464 |
| NCI-H520 | 0.242 | 0.23 | 0.253 | 0.248 | 0.702 | 0.302 | 0.303 | 0.198 | 0.751 | 0.646 | 0.706 | 0.572 | 0.284 | 0.243 | 0.174 | 0.256 | 0.198 | 0.185 | 0.172 | 0.525 |
| NCI-H1793 | 0.167 | 0.19 | 0.169 | 0.125 | 0.876 | 1.07 | 0.355 | 0.306 | 0.344 | 0.287 | 0.243 | 0.301 | 0.352 | 0.138 | 0.219 | 0.278 | 0.367 | 0.188 | 0.206 | 0.335 |
| A-427 | 1.18 | 0.932 | 0.857 | 0.76 | 0.979 | 0.767 | 0.272 | 0.299 | 0.282 | 0.423 | 0.335 | 0.334 | 0.178 | 0.133 | 0.145 | 0.421 | 0.326 | 0.159 | 0.176 | 0.344 |
